{"source": "patent US12491188B2", "about": "“Small molecule PARG inhibitors and methods of use thereof” (Board of Regents, The University of Texas System, priority 2019, dated 2025)", "molecular_target": "human PARG (Homo sapiens (Human), UniProt Q86W56)", "sequence (Q86W56 389-976)": "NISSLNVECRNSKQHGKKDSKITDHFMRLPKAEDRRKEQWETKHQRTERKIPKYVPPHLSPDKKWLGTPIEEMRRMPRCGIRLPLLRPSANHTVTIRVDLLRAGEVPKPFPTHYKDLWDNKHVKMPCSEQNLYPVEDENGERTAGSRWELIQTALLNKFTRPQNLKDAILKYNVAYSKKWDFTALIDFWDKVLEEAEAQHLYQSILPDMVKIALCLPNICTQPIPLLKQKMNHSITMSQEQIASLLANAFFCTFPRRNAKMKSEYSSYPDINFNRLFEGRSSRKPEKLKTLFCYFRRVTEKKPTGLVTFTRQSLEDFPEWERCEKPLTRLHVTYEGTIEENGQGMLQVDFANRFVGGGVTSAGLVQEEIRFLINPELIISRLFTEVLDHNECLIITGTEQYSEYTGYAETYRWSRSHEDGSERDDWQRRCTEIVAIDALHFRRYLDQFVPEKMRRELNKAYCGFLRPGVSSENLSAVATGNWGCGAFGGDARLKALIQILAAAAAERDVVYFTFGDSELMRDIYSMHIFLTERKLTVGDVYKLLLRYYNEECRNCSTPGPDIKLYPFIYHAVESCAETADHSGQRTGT", "test": "Gel-based PARG activity assay", "type": "biochemical", "experimental": "FIGS. 9a & 9b show structure-activity relationships (SAR) of compounds from five main chemotypes. (FIG. 9a) A total of 34 representative HTS hits and commercially available analogues from each chemotype (FIG. 7 and FIG. 29) were analyzed using the gel-based PARG activity assay. This gel-based assay directly monitors the change of PARylation status of PARP1 as a substrate of PARG. […] The reaction was quenched after a 30 min incubation at room temperature by adding SDS-PAGE sample buffer. PARylated PARP1C runs as a smear on SDS-PAGE that is reduced to a single band by PARG treatment. […] (FIG. 9b) Quantification of the dose-response PARG inhibition by JA2-3 using the gel-based PARG activity assay. hPARG (1 nM) was preincubated with increasing concentrations (0.032-1 μM) of JA2-3 for 1 hr at room temperature before PARylated PARP1C (500 nM) was added. The reaction was quenched after a 30 min incubation at room temperature. PARylated PARP1C migrates slower than unmodified PARP1C and was quantified using ImageJ. To determine the IC50 value, the dose-response data were plotted as a function of JA2-3 concentration and fitted to the four-parameter logistic equation using SigmaPlot. The rate of the PARG-dependent signal loss in the TR-FRET PAR turnover assay is not equivalent to the steady-state rate of PAR turnover, because the TR-FRET assay can't detect signal loss until the length of PAR chains become shorter than 7 ADP-ribose units. Therefore, the gel-based PARG activity assay to accurately determine the IC50 values throughout the present disclosure.\nGel-based PARG activity assay. PARP1C (2 μM) is enzymatically auto-modified in a reaction containing the PARP1 DBD (2 μM), a 24 mer nicked DNA oligo (2 μM), and NAD+(300 μM) for 1 hr at 37° C., as described previously (Kim et al., 2012). Human PARG^389-976 (1 nM) was pre-incubated with compounds for 1 hr at room temperature. The reaction was initiated by addition of PARylated PARP1 (final concentration of 500 nM) and quenched after 30 min incubation at room temperature by adding SDS-PAGE sample buffer. The gel was visualized by sypro-ruby staining (Kim et al., 2012) and the retained PARylated PARP1C species were quantified using ImageJ (Schneider et al., 2012).\nPARylated PARP1C that migrates slower than unmodified PARP1C was quantified. […] The IC50 values were determined by fitting the dose-response data for each compound to a four-parameter logistic equation using SigmaPlot (Systat Software Inc.).\nTo test specificity of JA2131, human PARG^389-976 (1 nM) was pre-incubated with JA2131 (5, 10, and 20 μM) in the presence and absence of 0.1% Triton-X 100 or 0.1 mg/ml BSA for 1 hr at room temperature. The reaction was initiated, quenched, visualized, and quantified as described above.", "data": [{"molecule": "O=C1C(Cl)=C(Cl)C(Cl)(Cl)C(Cl)=C1Cl", "note": "[JA2131]", "values": [{"measurement": "effect of detergent or non-specific protein on PARG inhibitory potency", "setting": "0.1% Triton-X 100 or 0.1 mg/ml BSA, JA2131 5, 10, 20 μM", "result": "Neither the addition of Triton-X 100 nor BSA significantly altered the inhibitory potency"}, {"measurement": "IC50 of PARG inhibition", "setting": "hPARG 1 nM, PARylated PARP1C 500 nM", "result": "sub-micromolar"}, {"measurement": "IC50", "setting": "hPARG 1 nM, PARylated PARP1C 500 nM, read-out: IC50 of PARG inhibition", "result": 400, "unit": "nM"}, {"measurement": "increase in potency of JA2131 (6′-thiocarbonyl) in comparison to JA2120 (6′-carbonyl)", "setting": "ratio of IC50 values", "result": "more than 50 fold"}]}]}
